Patent publication US20200055948A1, “CELLS EXPRESSING A BCMA-TARGETING CHIMERIC ANTIGEN RECEPTOR, AND COMBINATION THERAPY WITH A GAMMA SECRETASE INHIBITOR” (Novartis AG, priority 2017, published 2020)

How the values were obtained:
membrane BCMA expression = test: GSI enhancement of membrane BCMA (mBCMA) expression, flow cytometry after 72 hours, NCI-H929, MM1S, U266B1 (Example 2, Table 30, FIG. 3); format: cell-based; details: Homo sapiens
Experimental: (§1) FIG. 3 is a panel of graphs comparing soluble/shed BCMA (sBCMA) levels to membrane-bound BCMA (mBCMA) levels in MM1S cell cultures treated with various gamma secretase inhibitors for 72 hours.
(§2) Target human cancer cell lines expressing various levels of human BCMA (NCI-H929^[High], MM1S^[med], U266B1^[low]) were all transduced to constitutively express luciferase, which is used to measure cell viability/survival with the BrightGlo reagent (Promega E2650). Target cells were plated 30,000 cells per well in a 96 well plate (Costar 3904) together with serial dilutions of a panel of gamma secretase inhibitors (Table 29). The plate was incubated at 37° C./5% CO2 for 72 hours, followed by measurements of cell viability (BrightGlo, Promega # E2650) according to vendor protocol. In a replicate set of assay plates, cell culture supernatants were collected by centrifugation and quantified for levels of soluble BCMA by ELISA (R&D Systems, DY193), and the remaining cells were stained with a PE conjugated BCMA antibody (clone 19F2, Biolegend 357504) and analyzed by flow cytometry for BCMA cell surface expression levels.
(§3) Raw OD450 values from the BCMA ELISA were plotted together with the mean fluorescent intensity values from flow cytometry analysis of cells stained with anti-BCMA antibody, and are shown for MM1S cells treated with the various GSIs in FIG. 3. Table 30 summarizes the EC50 results of all the GSIs on the three BCMA-expressing cell lines.

shed/soluble BCMA = test: GSI inhibition of shed/soluble BCMA (sBCMA), ELISA of supernatants after 72 hours, NCI-H929, MM1S, U266B1 (Example 2, Table 30, FIG. 3); format: cell-based, human; details: for EC50: Homo sapiens, 72 hours, ELISA of supernatants; for efficacious concentrations, rank among the panel of GSIs: inhibition of BCMA shedding and enhancement of membrane BCMA, Table 30
Experimental: as §1, §2, §3

[1] = system: BCMA cell surface expression; test: BCMA cell surface expression by flow cytometry with PE conjugated BCMA antibody, with or without GSI (Example 1, FIG. 1); format: cell-based, human; details: BCMA-expressing multiple myeloma cell lines
Experimental: FIG. 1 is a set of histogram plots showing the staining of BCMA-expressing human cancer cell lines, NCI-H929, MM1S, and U266B1, using a PE conjugated anti-BCMA antibody. The cell lines were untreated, or treated with 1.0 μM DAPT or 0.1 μM LY-411,575 before subjected to a flow cytometry analysis.
Human cancer cell lines expressing various levels of human BCMA (NCI-H929^[High] MM1S^[Med], and U266B1^[low]) were all transduced to constitutively express luciferase, which is used to measure cell viability/survival with the BrightGlo reagent (Promega # E2650).
BCMA expressing cell lines were treated overnight with and without GSIs. Cell culture supernatants were collected and quantified for levels of soluble BCMA by ELISA (R&D Systems, # DY193). Additionally, remaining cells were pelleted, stained with a PE conjugated BCMA antibody (clone 19F2, Biolegend #357504) and analyzed by flow cytometry for BCMA cell surface expression levels.
BCMA cell surface expression level was determined by flow cytometry on cell lines with or without GSI treatment.

soluble BCMA = test: Soluble BCMA in supernatants of MM cell lines U266 or RPMI 8226 by sandwich ELISA after 48 hrs GSI (Example 3, FIGS. 5A and 5B); format: cell-based, human; details: RPMI 8226 cells treated, 6 μM-100 μM
Experimental: FIGS. 5A and 5B are a pair of graphs showing that a gamma secretase inhibitor reduces soluble BCMA released by MM cell lines. In FIGS. 5A and 5B, the amount of soluble BCMA (pg/ml) as measured by ELISA is plotted for each GSI concentration tested.
MM cell lines U266 or RPMI 8226 were incubated with several concentrations (6 μM-100 μM) of Ly 411575 gamma secretase inhibitor (Miltenyi) for 48 hrs. Supernatants were collected and secreted BCMA was measured using a sandwich ELISA (BCMA/TNFRSF17 ELISA Duo set, R&D Systems).

## O=S(=O)(N[C@@H](CO)C(C(F)(F)F)C(F)(F)F)c1ccc(Cl)s1 [PF-5212362, (R)-5-chloro-N-(4,4,4-trifluoro-1-hydroxy-3-(trifluoromethyl)butan-2-yl)thiophene-2-sulfonamide]
Membrane BCMA expression; MM1.S, MM1S cells
  EC50: 52.2 nM
Membrane BCMA expression; NCI-H929, H929 cells
  EC50: 13.8 nM
Membrane BCMA expression; U266B1 cells
  EC50: 560 nM
shed/soluble BCMA; MM1.S, MM1S cells
  EC50: 121 nM
shed/soluble BCMA; NCI-H929, H929 cells
  EC50: 137 nM
shed/soluble BCMA; U266B1 cells
  EC50: 583 nM

## CCC[C@H](N[C@H]1CCc2cc(F)cc(F)c2C1)C(=O)Nc1cn(C(C)(C)CNCC(C)(C)C)cn1 [PF-3084014, (S)-2-(((S)-6,8-difluoro-1,2,3,4-tetrahydronaphthalen-2-yl)amino)-N-(1-(2-methyl-1-(neopentylamino)propan-2-yl)-1H-imidazol-4-yl)pentanamide]
Membrane BCMA expression; MM1.S, MM1S cells
  EC50: 36.6 nM
Membrane BCMA expression; NCI-H929, H929 cells
  EC50: 31.6 nM
Membrane BCMA expression; U266B1 cells
  EC50: 70.4 nM
shed/soluble BCMA; MM1.S, MM1S cells
  EC50: 32.2 nM
shed/soluble BCMA; NCI-H929, H929 cells
  EC50: 34.8 nM
shed/soluble BCMA; U266B1 cells
  EC50: 67.2 nM

## O=C(O)CC[C@H]1CC[C@@](c2cc(F)ccc2F)(S(=O)(=O)c2ccc(Cl)cc2)CC1 [MK-0752, 3-((1S,4R)-4-((4-chlorophenyl)sulfonyl)-4-(2,5-difluorophenyl)cyclohexyl)propanoic acid]
Membrane BCMA expression; MM1.S, MM1S cells
  EC50: 332 nM
Membrane BCMA expression; NCI-H929, H929 cells
  EC50: 69.3 nM
Membrane BCMA expression; U266B1 cells
  EC50: 1210 nM
shed/soluble BCMA; MM1.S, MM1S cells
  EC50: 566 nM
shed/soluble BCMA; NCI-H929, H929 cells
  EC50: 269 nM
shed/soluble BCMA; U266B1 cells
  EC50: 1060 nM

## CC(C)[C@H](O)C(=O)N[C@@H](C)C(=O)N[C@@H]1C(=O)N(C)CCc2ccccc21 [LY-450139, (S)-2-hydroxy-3-methyl-N—((S)-1-(((S)-3-methyl-2-oxo-2,3,4,5-tetrahydro-1H-benzo[d]azepin-1-yl)amino)-1-oxopropan-2-yl)butanamide]
Membrane BCMA expression; MM1.S, MM1S cells
  EC50: 40.7 nM
Membrane BCMA expression; NCI-H929, H929 cells
  EC50: 54.8 nM
Membrane BCMA expression; U266B1 cells
  EC50: 190 nM
shed/soluble BCMA; MM1.S, MM1S cells
  EC50: 65 nM
shed/soluble BCMA; NCI-H929, H929 cells
  EC50: 99.9 nM
shed/soluble BCMA; U266B1 cells
  EC50: 236 nM

## NC(=O)[C@@H](CCC(F)(F)F)N(Cc1ccc(-c2ncon2)cc1F)S(=O)(=O)c1ccc(Cl)cc1 [BMS-708163, (R)-2-((4-chloro-N-(2-fluoro-4-(1,2,4-oxadiazol-3-yl)benzyl)phenyl)sulfonamido)-5,5,5-trifluoropentanamide]
Membrane BCMA expression; MM1.S, MM1S cells
  EC50: 7.4 nM
Membrane BCMA expression; NCI-H929, H929 cells
  EC50: 3.6 nM
Membrane BCMA expression; U266B1 cells
  EC50: 32.4 nM
shed/soluble BCMA; MM1.S, MM1S cells
  EC50: 13.3 nM
shed/soluble BCMA; NCI-H929, H929 cells
  EC50: 2.5 nM
shed/soluble BCMA; U266B1 cells
  EC50: 29.8 nM

## CC(C)(C(=O)NCC(F)(F)C(F)(F)F)C(=O)N[C@@H]1C(=O)Nc2ccccc2-c2ccccc21 [RO4929097]
Membrane BCMA expression; MM1.S, MM1S cells
  EC50: 3.2 nM
Membrane BCMA expression; NCI-H929, H929 cells
  EC50: 4.4 nM
Membrane BCMA expression; U266B1 cells
  EC50: 10.1 nM
shed/soluble BCMA; MM1.S, MM1S cells
  EC50: 4.6 nM
shed/soluble BCMA; NCI-H929, H929 cells
  EC50: 3 nM
shed/soluble BCMA; U266B1 cells
  EC50: 6.2 nM

## C[C@H](c1ccc(F)cc1CCCC(=O)O)N(c1cc(F)ccc1F)S(=O)(=O)c1ccc(Cl)cc1 [BMS-299897]
Membrane BCMA expression; MM1.S, MM1S cells
  EC50: 485 nM
Membrane BCMA expression; NCI-H929, H929 cells
  EC50: 152 nM
Membrane BCMA expression; U266B1 cells
  EC50: 1690 nM
shed/soluble BCMA; MM1.S, MM1S cells
  EC50: 800 nM
shed/soluble BCMA; NCI-H929, H929 cells
  EC50: 528 nM
shed/soluble BCMA
  efficacious concentrations, rank among the panel of GSIs: least

## C[C@H](NC(=O)[C@@H](O)c1cc(F)cc(F)c1)C(=O)N[C@@H]1C(=O)N(C)c2ccccc2-c2ccccc21 [LY-411575, (S)-2-((S)-2-(3,5-difluorophenyl)-2-hydroxyacetamido)-N—((S)-5-methyl-6-oxo-6,7-dihydro-5H-dibenzo[b,c]azepin-7-yl)propanamide]
[1]
  cell surface expression of BCMA (in words): strongly enhances
Membrane BCMA expression; NCI-H929, H929 cells
  EC50: 0.1 nM
Membrane BCMA expression; U266B1 cells
  EC50: 0.1 nM
Soluble BCMA
  secreted BCMA: 200 pg/mL
shed/soluble BCMA; MM1.S, MM1S cells
  EC50: 0.1 nM
shed/soluble BCMA; NCI-H929, H929 cells
  EC50: 0.2 nM
shed/soluble BCMA; U266B1 cells
  EC50: 0.1 nM
shed/soluble BCMA
  efficacious concentrations, rank among the panel of GSIs: most potent

## C[C@H](NC(=O)Cc1cc(F)cc(F)c1)C(=O)N[C@H](C(=O)OC(C)(C)C)c1ccccc1 [DAPT]
[1]
  cell surface expression of BCMA (in words): strongly enhances
Membrane BCMA expression; MM1.S, MM1S cells
  EC50: 97.4 nM
Membrane BCMA expression; NCI-H929, H929 cells
  EC50: 145 nM
Membrane BCMA expression; U266B1 cells
  EC50: 401 nM
shed/soluble BCMA; MM1.S, MM1S cells
  EC50: 144 nM
shed/soluble BCMA; NCI-H929, H929 cells
  EC50: 220 nM
shed/soluble BCMA; U266B1 cells
  EC50: 459 nM
